Measurements taken from US12655142B2 (Merck Patent GmbH, priority 2019, dated 2026).

Legend:
c-Kit(V654A) = molecular target: T1, c-Kit(V654A) (Homo sapiens, UniProt P10721, V654A); assay: c-Kit(V654A) assay (33P-ATP filter binding kinase assay); format: biochemical; settings: recombinant human c-Kit aa 544-end V654A, ATP 200 μM
T1 construct: recombinant human c-Kit, amino acids 544-end containing the V654A mutation; GST (N)
Protocol: c-Kit(V654A) (N-terminal GST-tagged, recombinant human c-Kit, amino acids 544-end containing the V654A mutation) is incubated with 8 mM MOPS pH 7.0, 0.2 mM EDTA, 250 μM GGMEDIYEFMGGKKK, 10 mM MgAcetate and [gamma-33P-ATP] (specific activity approx. 500 cpm/pmol, concentration 200 μM). The reaction is initiated by the addition of the MgATP mix. After incubation for 40 minutes at room temperature, the reaction is stopped by the addition of 3% phosphoric acid solution. 10 μL of the reaction is then spotted onto a P30 filtermat and washed three times for 5 minutes in 75 mM phosphoric acid and once in methanol prior to drying and scintillation counting.

[1] = molecular target: T2, GIST430/654 cell line expressing mutated constitutively active cKIT receptor tyrosine kinase (Δ560-576 deletion and V654A point mutation) (Homo sapiens, UniProt P10721, DEL560-576/V654A); assay: Cellular cKIT autophosphorylation (phospho-Y307-cKIT, Luminex bead assay) in GIST430/654 cells; format: cell-based; settings: compounds 45 min, read-out: GIST 430/654 IC50
T2 construct: endogenous in cells; host or cells: GIST430/654 cells
T2 sequence (P10721 with tags, fused parts or gaps DEL560-576/V654A): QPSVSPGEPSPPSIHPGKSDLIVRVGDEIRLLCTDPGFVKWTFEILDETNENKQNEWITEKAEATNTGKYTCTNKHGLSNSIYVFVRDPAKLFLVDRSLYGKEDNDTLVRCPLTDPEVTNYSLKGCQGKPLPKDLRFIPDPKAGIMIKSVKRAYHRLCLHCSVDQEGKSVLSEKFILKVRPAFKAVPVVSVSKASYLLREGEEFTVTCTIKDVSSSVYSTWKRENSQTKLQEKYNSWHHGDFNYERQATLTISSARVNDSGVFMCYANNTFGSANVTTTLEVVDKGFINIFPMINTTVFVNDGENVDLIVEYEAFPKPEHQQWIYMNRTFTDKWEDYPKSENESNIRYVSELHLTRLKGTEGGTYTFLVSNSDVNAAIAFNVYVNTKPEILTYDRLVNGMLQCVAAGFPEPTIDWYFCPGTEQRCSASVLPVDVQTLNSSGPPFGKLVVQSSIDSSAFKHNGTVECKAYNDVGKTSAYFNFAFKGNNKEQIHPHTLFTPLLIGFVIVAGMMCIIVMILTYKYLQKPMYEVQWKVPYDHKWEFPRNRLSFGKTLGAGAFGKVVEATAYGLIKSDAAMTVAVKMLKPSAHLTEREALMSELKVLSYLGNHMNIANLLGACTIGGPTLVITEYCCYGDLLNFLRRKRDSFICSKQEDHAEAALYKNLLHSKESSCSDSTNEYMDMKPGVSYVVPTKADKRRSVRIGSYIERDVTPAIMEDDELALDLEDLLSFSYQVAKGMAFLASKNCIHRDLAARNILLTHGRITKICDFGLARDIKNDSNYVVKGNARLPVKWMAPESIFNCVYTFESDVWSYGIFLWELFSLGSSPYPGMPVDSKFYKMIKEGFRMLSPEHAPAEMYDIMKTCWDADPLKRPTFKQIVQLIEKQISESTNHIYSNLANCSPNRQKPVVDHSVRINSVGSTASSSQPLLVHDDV
Protocol: Assay Principle for Cellular Testing of cKIT Mutant Inhibitors
The GIST430 cell line expressing constitutive active cKIT receptor tyrosine kinase (Δ560-576 deletion) and the Imatinib resistant GIST430/654 cell line expressing mutated constitutively active cKIT receptor tyrosine kinase (Δ560-576 deletion and V654A point mutation) were employed for assessing cellular potency of compounds. Cellular activity of mutant cKIT was determined by the degree of cKIT autophosphorylation at tyrosine 307 using a Luminex-based bead assay. GIST430 cells were plated with 22,000 cells per well of a 96-well plate in 100 μl medium (85% IMDM/15% FCS) and GIST430/654 cells were plated with 25,000 cells per well of a 96-well plate in 100 μl medium (85% IMDM/15% FCS supplemented with 100 nM Imatinib). At the following day compounds were added in a serial dilution for 45 min. Then, cells were lysed with 90 μl lysis buffer (20 mM Hepes pH 7.5, 200 mM NaCl, 1.5 mM MgCl2×6H2O, 0.4 mM EDTA, 1% Triton-X-100, 1% Phosphatase-Inhibitor II, 20 mM β-Glycerolphosphat, 0.1% Protease-Inhibitor Cocktail III, 0.01% Benzonase) and lysates were cleared by centrifugation through a 96-well filter plate (0.65 μm). Samples were incubated with Luminex-beads which were coupled with an anti-total cKIT antibody overnight at 4° C. under gentle agitation. For detection of phospho-Y307-cKIT a phosphospecific antibody and a species-specific PE-labeled secondary antibody were added. The amount of phospho-Y307-cKIT was determined in a Luminex 200 instrument measuring 100 events per well within 60 seconds.
Counts from samples treated with compounds were calculated as percent of control from solvent treated (0.3% DMSO) samples. Dose-response curves were fitted and IC50 values were determined using Genedata Screener software.

T1 sequence (P10721 544-976 V654A): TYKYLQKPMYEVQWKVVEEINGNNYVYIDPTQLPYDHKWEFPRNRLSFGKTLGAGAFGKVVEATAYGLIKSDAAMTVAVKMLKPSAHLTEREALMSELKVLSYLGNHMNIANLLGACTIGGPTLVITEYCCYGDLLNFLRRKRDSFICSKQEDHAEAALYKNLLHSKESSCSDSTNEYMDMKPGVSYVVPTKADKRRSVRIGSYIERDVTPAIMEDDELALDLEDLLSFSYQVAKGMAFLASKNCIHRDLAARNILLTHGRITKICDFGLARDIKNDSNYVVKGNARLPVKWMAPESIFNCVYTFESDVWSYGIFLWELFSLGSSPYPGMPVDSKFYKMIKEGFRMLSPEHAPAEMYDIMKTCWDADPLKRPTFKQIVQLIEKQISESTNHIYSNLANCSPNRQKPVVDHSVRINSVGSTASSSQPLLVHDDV

Compound	IC50 (c-Kit(V654A)) [nM]	IC50 [1] [nM]
Cn1cc(-c2ccc(CNc3cc(-c4cnc5cc([N+](=O)[O-])ccn45)ncn3)cc2)cn1 [A81, N-{[4-(1-methyl-1H-pyrazol-4-yl)phenyl]methyl}-6-{7-nitroimidazo[1,2-a]pyridin-3-yl}pyrimidin-4-amine]	27	970
Cn1cc(-c2ccc(CNc3cc(-c4cnc5cc(Cl)ccn45)ncn3)cc2)cn1 [A82, 6-{7-chloroimidazo[1,2-a]pyridin-3-yl}-N-{[4-(1-methyl-1H-pyrazol-4-yl)phenyl]methyl}pyrimidin-4-amine]	9.2	270
CN1CCN(CCOc2ccn3c(-c4cc(OCc5ccc(-c6cnn(C)c6)cc5)ncn4)cnc3c2)CC1 [A86, 7-[2-(4-methyl-piperazin-1-yl)-ethoxy]-3-{6-[4-(1-methyl-1H-pyrazol-4-yl)-benzyloxy]-pyrimidin-4-yl}-imidazo[1,2-a]pyridine]	5	110
Cn1cc(-c2ccc(COc3cc(-c4cnc5cc(OCCN6CCCC6)ccn45)ncn3)cc2)cn1 [A87, 3-{6-[4-(1-methyl-1H-pyrazol-4-yl)-benzyloxy]-pyrimidin-4-yl}-7-(2-pyrrolidin-1-yl-ethoxy)-imidazo[1,2-a]pyridine]	11	500
Cn1cc(-c2ccc(CNc3cc(-c4cnc5cc(OCCCN6CCOCC6=O)ccn45)ncn3)cc2)cn1 [A88, 4-[3-({3-[6-({[4-(1-methyl-1H-pyrazol-4-yl)phenyl]methyl}amino)pyrimidin-4-yl]imidazo[1,2-a]pyridin-7-yl}oxy)propyl]morpholin-3-one]	12	89
Cn1cc(-c2ccc(CNc3cc(-c4cnc5cc(OCCN6CCC(F)C6)ccn45)ncn3)cc2)cn1 (stereo not shown) [A89, 6-{7-[2-(3-fluoropyrrolidin-1-yl)ethoxy]imidazo[1,2-a]pyridin-3-yl}-N-{[4-(1-methyl-1H-pyrazol-4-yl)phenyl]methyl}pyrimidin-4-amine]	8.6	82
Cn1cc(-c2ccc(COc3cc(-c4cnc5cc(OCCN6CCC(F)(F)C6)ccn45)ncn3)cc2)cn1 [A90, 7-[2-(3,3-difluoro-pyrrolidin-1-yl)-ethoxy]-3-{6-[4-(1-methyl-1H-pyrazol-4-yl)-benzyloxy]-pyrimidin-4-yl}-imidazo[1,2-a]pyridine]	10	260
Cn1cc(-c2ccc(CNc3cc(-c4cnc5cc(OCCN6CCOCC6=O)ccn45)ncn3)cc2)cn1 [A92, 4-[2-({3-[6-({[4-(1-methyl-1H-pyrazol-4-yl)phenyl]methyl}amino)pyrimidin-4-yl]imidazo[1,2-a]pyridin-7-yl}oxy)ethyl]morpholin-3-one]	8.2	87
CN1CCN(CCOc2ccn3c(-c4cc(NCc5ccc(-c6cnn(C)c6)cc5)ncn4)cnc3c2)CC1=O [A93, 1-methyl-4-[2-({3-[6-({[4-(1-methyl-1H-pyrazol-4-yl)phenyl]methyl}amino)pyrimidin-4-yl]imidazo[1,2-a]pyridin-7-yl}oxy)ethyl]piperazin-2-one]	13	110
CN1CCN(CCCOc2ccn3c(-c4cc(NCc5ccc(-c6cnn(C)c6)cc5)ncn4)cnc3c2)CC1 [A94, N-{[4-(1-methyl-1H-pyrazol-4-yl)phenyl]methyl}-6-{7-[3-(4-methylpiperazin-1-yl)propoxy]imidazo[1,2-a]pyridin-3-yl}pyrimidin-4-amine]	6.8	64
Cn1cc(-c2ccc(CNc3cc(-c4cnc5cc(OCCN6CCN(C7COC7)CC6=O)ccn45)ncn3)cc2)cn1 [A95, 1-[2-({3-[6-({[4-(1-methyl-1H-pyrazol-4-yl)phenyl]methyl}amino)pyrimidin-4-yl]imidazo[1,2-a]pyridin-7-yl}oxy)ethyl]-4-(oxetan-3-yl)piperazin-2-one]	9.8	210
CN1CCN(CCCOc2ccn3c(-c4cc(NCc5ccc(-c6cnn(C)n6)cc5)ncn4)cnc3c2)CC1 [A96, N-{[4-(2-methyl-2H-1,2,3-triazol-4-yl)phenyl]methyl}-6-{7-[3-(4-methylpiperazin-1-yl)propoxy]imidazo[1,2-a]pyridin-3-yl}pyrimidin-4-amine]	2.9	31
Cn1ncc(-c2ccc(CNc3cc(-c4cnc5cc(OCCc6nccn6C)ccn45)ncn3)cc2)n1 [A98, (6-{7-[2-(1-methyl-1H-imidazol-2-yl)-ethoxy]-imidazo[1,2-a]pyridin-3-yl}-pyrimidin-4-yl)-[4-(2-methyl-2H-[1,2,3]triazol-4-yl)-benzyl]-amine]	8.3	98
Cn1cc(-c2ccc(CNc3cc(-c4cnc5cc(OCCCN6CCC(F)(F)C6)ccn45)ncn3)cc2)cn1 [A101, 6-{7-[3-(3,3-difluoropyrrolidin-1-yl)propoxy]imidazo[1,2-a]pyridin-3-yl}-N-{[4-(1-methyl-1H-pyrazol-4-yl)phenyl]methyl}pyrimidin-4-amine]	22	150
Cn1cc(-c2ccc(CNc3cc(-c4cnc5cc(OCCN6CC7CC(C6)O7)ccn45)ncn3)cc2)cn1 [A103, [4-(1-methyl-1H-pyrazol-4-yl)-benzyl]-(6-{7-[2-(6-oxa-3-aza-bicyclo[3.1.1]hept-3-yl)-ethoxy]-imidazo[1,2-a]pyridin-3-yl}-pyrimidin-4-yl)-amine]	9.5	120
Cn1ncc(-c2ccc(CNc3cc(-c4cnc5cc(OCCN6CCC(F)(F)C6)ccn45)ncn3)cc2)n1 [A105, (6-{7-[2-(3,3-difluoro-pyrrolidin-1-yl)-ethoxy]-imidazo[1,2-a]pyridin-3-yl}-pyrimidin-4-yl)-[4-(2-methyl-2H-[1,2,3]triazol-4-yl)-benzyl]-amine]	9.5	120
Cn1ncc(-c2ccc(CNc3cc(-c4cnc5cc(OCc6ccccn6)ccn45)ncn3)cc2)n1 [A106, [4-(2-methyl-2H-[1,2,3]triazol-4-yl)-benzyl]-{6-[7-(pyridin-2-ylmethoxy)-imidazo[1,2-a]pyridin-3-yl]-pyrimidin-4-yl}-amine]	9.5	370
Cn1cc(-c2ccc(CNc3cc(-c4cnc5cc(OCC(C)(C)N6CCOCC6)ccn45)ncn3)cc2)cn1 [A107, {6-[7-(2-methyl-2-morpholin-4-yl-propoxy)-imidazo[1,2-a]pyridin-3-yl]-pyrimidin-4-yl}-[4-(1-methyl-1H-pyrazol-4-yl)-benzyl]-amine]	13	120
Cn1ncc(-c2ccc(CNc3cc(-c4cnc5cc(OCC(C)(C)N6CCOCC6)ccn45)ncn3)cc2)n1 [A109, {6-[7-(2-methyl-2-morpholin-4-yl-propoxy)-imidazo[1,2-a]pyridin-3-yl]-pyrimidin-4-yl}-[4-(2-methyl-2H-[1,2,3]triazol-4-yl)-benzyl]-amine]	7.5	79
Cn1cc(-c2ccc(CNc3cc(-c4cnc5cc(OCCc6nccn6C)ccn45)ncn3)cc2)cn1 [A111, (6-{7-[2-(1-methyl-1H-imidazol-2-yl)-ethoxy]imidazo[1,2-a]pyridin-3-yl}-pyrimidin-4-yl)-[4-(1-methyl-1H-pyrazol-4-yl)-benzyl]-amine]	7.9	63
Cn1ncc(-c2ccc(CNc3cc(-c4cnc5cc(OCc6cccnc6)ccn45)ncn3)cc2)n1 [A112, [4-(2-methyl-2H-[1,2,3]triazol-4-yl)-benzyl]-{6-[7-(pyridin-3-ylmethoxy)-imidazo[1,2-a]pyridin-3-yl]-pyrimidin-4-yl}-amine]	40	260
Cn1cc(-c2ccc(CNc3cc(-c4cnc5cc(OCc6nccn6C)ccn45)ncn3)cc2)cn1 [A113, {6-[7-(1-methyl-1H-imidazol-2-ylmethoxy)-imidazo[1,2-a]pyridin-3-yl]-pyrimidin-4-yl}-[4-(1-methyl-1H-pyrazol-4-yl)-benzyl]-amine]	14	620
CN1CCC(CCOc2ccn3c(-c4cc(NCc5ccc(-c6cnn(C)c6)cc5)ncn4)cnc3c2)C1 (stereo not shown) [A115, [4-(1-methyl-1H-pyrazol-4-yl)-benzyl]-(6-{7-[2-(1-methyl-pyrrolidin-3-yl)-ethoxy]-imidazo[1,2-a]pyridin-3-yl}-pyrimidin-4-yl)-amine]	3.7	49
